Values joined by “and” are separate entries in the source; they are usually repeats but may differ in a detail not shown here. Equal values may be shown once. Read-outs that look alike come from different tables or passages of the source.
Assays:
OVCAR-3 [1] = assay: Viability (AlamarBlue), OVCAR-3; assay type: cell-based; settings: Homo sapiens; OVCAR-3, Ovarian
Protocol: (§1) For primary T-ALL samples, cell viability was determined using the BD Cell Viability kit (BD Biosciences) and fluorescent counting beads as previously described in Armstrong, F. et al., NOTCH is a key regulator of human T-cell acute leukemia initiating cell activity, Blood 113, 1730-1740 (2009). Cells were plated with MS5-DL1 stroma cells. After 72 hours following treatment, cells were harvested and stained with an APC-conjugated anti-human CD45 according to the manufacturer's instructions. For solid tumor cell lines, cellular viability was determined using the AlamarBlue kit (Invitrogen). About 10,000 cells in 100 μL of media containing 10% FBS were aliquoted into individual wells of a 96-well plate and treated with vehicle (DMSO) or compound in triplicate for 24 hours. Ten μL of AlamarBlue reagent was added to each well and incubated for 4 hours at 37° C. with 5% CO2. Fluorescence was measured with an excitation wavelength at 530 to 560 nm and emission wavelength at 590 nm using Spectramax M5 plate reader (Molecular Devices, Sunnyvale, Calif.).

[2] = In vivo PK (cannulated rat, IV and PO); settings: for half-life: read-out: T½ (converted)
PTEN null T-ALL = assay: Diseased Lck/PTEN^fl/fl mice with PTEN null T-ALL; assay type: in vivo; settings: 30 mg/kg BID, Day 4 and 7, compared to control mice
Mouse PK = assay type: in vivo; settings: plasma, PO 20 mg/kg
Description: The pharmacokinetics of Compound A in mouse and dogs were also examined. […] The results of Tmax (time of maximum observed concentration), Cmax (maximum concentration in plasma measured), AUC (area under the curve for plasma concentration versus time), Cl (total body clearance), and Vz (volume of distribution) were summarized in Table 4. As used herein, the mark ‘-’ represents data not relevant. AUC is shown as the unit of ng*h/mL (ng=nanograms, h=hour, mL=milliliter); ng are multiplied by h, and the value is divided by the volume in mL.

Solid tumor = assay: Cellular viability, solid tumor; assay type: cell-based; settings: N = 14
Protocol: as §1
(§2) Cellular viability and pAkt activity were used to determine effects of Compounds A, C, and D in solid tumor, B-cell malignancies, and T-cell malignancies.

primary T-ALL tumors = assay: Viability of primary T-ALL tumors; assay type: cell-based, human; settings: 1.0, 2.5, and 5.0 μM, 72 hours
Protocol: Cryopreserved samples from the Columbia Presbyterian Hospital, the Erasmus MC-Sophia Children's Hospital, and the University of Padua were used. All samples were collected with informed consent and supervised by the institutes' review boards and the Acute Lymphoblastic Leukemia Strategic Scientific Committee.
as §1, with “Calif.). […]” for “Calif.).”

22Rv1 = assay: pAkt pathway inhibition, 22Rv1; assay type: cell-based; settings: Homo sapiens; 22Rv1, Prostate
OVCAR-3 [3] = assay: pAkt pathway inhibition, OVCAR-3; assay type: cell-based; settings: Homo sapiens; OVCAR-3, Ovarian
LNCaP = assay: pAkt pathway inhibition, LNCaP; assay type: cell-based; settings: Homo sapiens, Prostate
LN229 [4] = assay: Viability (AlamarBlue), LN229; assay type: cell-based; settings: Homo sapiens, LN-229; LN229, Glioma
Protocol: as §1

T47D = assay: pAkt pathway inhibition, T47D; assay type: cell-based; settings: Homo sapiens, Breast
[5] = In vitro metabolism in human liver microsomes; assay type: in vitro ADME
[6] = tested on: pAkt in T Cell Malignancies; assay: pAkt activity, T cell malignancies; assay type: cell-based; settings: N = 7
Description: as §2

U87MG = assay: pAkt pathway inhibition, U87MG; assay type: cell-based; settings: Homo sapiens, U-87 MG, Glioma
786-0 [7] = assay: pAkt pathway inhibition, 786-0; assay type: cell-based; settings: Homo sapiens; 786-0, Renal
IGROV-1 [8] = assay: Viability (AlamarBlue), IGROV-1; assay type: cell-based; settings: Homo sapiens; IGROV-1, Ovarian
Protocol: as §1

PC3 = assay: pAkt pathway inhibition, PC3; assay type: cell-based; settings: Homo sapiens, PC-3; PC3, Prostate
U138MG = assay: pAkt pathway inhibition, U138MG; assay type: cell-based; settings: Homo sapiens, U138-MG, Glioma
786-0 [9] = assay: Viability (AlamarBlue), 786-0; assay type: cell-based; settings: Homo sapiens; 786-0, Renal
Protocol: as §1

T Cell Malignancies = assay: Cellular viability, T cell malignancies; assay type: cell-based; settings: N = 7
Description: as §2

IGROV-1 [10] = assay: pAkt pathway inhibition, IGROV-1; assay type: cell-based; settings: Homo sapiens; IGROV-1, Ovarian
pAkt in solid tumor = assay: pAkt activity, solid tumor; assay type: cell-based; settings: N = 14
Description: as §2

B Cell Malignancies = assay: Cellular viability, B cell malignancies; assay type: cell-based; settings: N = 7
Description: as §2

LN229 [11] = assay: pAkt pathway inhibition, LN229; assay type: cell-based; settings: Homo sapiens, LN-229; LN229, Glioma
MDA-MB-468 = assay: pAkt pathway inhibition, MDA-MB-468; assay type: cell-based; settings: Homo sapiens; MDA-MB-468, Breast
[12] = IV 1 mg/kg, individual rats, 1 mg/kg
[13] = rat, plasma, iv, 1 mg/kg, IV 1 mg/kg, individual rats
[14] = rat, plasma, iv, 1 mg/kg, IV 1 mg/kg, mean of 3 rats
[15] = rat, plasma, po, 3 mg/kg, PO 3 mg/kg, individual rats
[16] = rat, plasma, po, 3 mg/kg, PO 3 mg/kg, mean of 3 rats
[17] = rat, plasma, po, 30 mg/kg, PO 30 mg/kg, individual rats
[18] = rat, plasma, po, 30 mg/kg, PO 30 mg/kg, mean of 3 rats

Structure (SMILES): CC(Nc1ncnc2[nH]cnc12)c1nc2cccc(Cl)c2c(=O)n1-c1ccccc1 (stereo not drawn) [Compound A, 2-(1-(9H-purin-6-ylamino)ethyl)-5-chloro-3-phenylquinazolin-4(3H)-one]
- GI50 (OVCAR-3 [1]): 850 nM
- Vss [2, 12]: 1.32 L/kg and 1.674 L/kg
- Vz [2, 12]: 5.849 L/kg and 1.768 L/kg
- Bioavailability ([2]; PO 3 mg/kg, individual rats (Rat 1, 2, 3), 3 mg/kg): 81% and 37%
- Cmax ([2]; PO 3 mg/kg, individual rats, 3 mg/kg): 457 ng/mL and 345 ng/mL
- Bioavailability ([2]; PO 30 mg/kg, individual rats (Rat 4, 5, 6), 30 mg/kg): 138% and 128% and 87%
- Cmax ([2]; PO 30 mg/kg, individual rats, 30 mg/kg): 5770 ng/mL and 4320 ng/mL
- AUC ([2]; plasma, Rat, PO 3 mg/kg (Table 4)): 2000 ng·h/mL
- clearance ([2]; rat, plasma, iv, 1 mg/kg, IV 1 mg/kg (Table 4)): 15.2 mL/min/kg
- AUC(0-inf) [2, 13]: 1050 ng·h/mL
- AUC(0-t) [2, 13]: 1040 ng·h/mL
- Vd ([2]; rat, plasma, iv, 1 mg/kg, IV 1 mg/kg, individual rats, read-out: Vss): 2.64 L/kg
- AUC(0-inf) [2, 14]: 1130 ng·h/mL
- AUC(0-t) [2, 14]: 1100 ng·h/mL
- Vd ([2]; rat, plasma, iv, 1 mg/kg, IV 1 mg/kg, mean of 3 rats, read-out: Vss): 1.88 L/kg
- Vd ([2]; rat, plasma, iv, 1 mg/kg, IV 1 mg/kg, mean of 3 rats, read-out: Vz): 2.99 L/kg
- Vd ([2]; rat, plasma, iv, 1 mg/kg, Rat, IV 1 mg/kg (Table 4), read-out: Vz): 2.99 L/kg
- Tmax ([2]; rat, plasma, po, 3 mg/kg, PO 3 mg/kg (Table 4)): 1.3 h
- Tmax [2, 15]: 1 h
- Cmax ([2]; rat, plasma, po, 3 mg/kg, PO 3 mg/kg, individual rats, read-out: Cmax): 568 ng/mL
- half-life [2, 15]: 2.9 h
- AUC(0-inf) [2, 16]: 2010 ng·h/mL
- AUC(0-t) [2, 16]: 2000 ng·h/mL
- Bioavailability ([2]; rat, plasma, po, 3 mg/kg, PO 3 mg/kg, mean of 3 rats, read-out: Bioavailability): 59%
- Cmax ([2]; rat, plasma, po, 3 mg/kg, PO 3 mg/kg, mean of 3 rats, read-out: Cmax): 456 ng/mL
- Cmax ([2]; rat, plasma, po, 3 mg/kg, Rat, PO 3 mg/kg (Table 4), read-out: Cmax): 456 ng/mL
- AUC(0-inf) [2, 17]: 46800 ng·h/mL
- Tmax [2, 17]: 4 h
- Cmax ([2]; rat, plasma, po, 30 mg/kg, PO 30 mg/kg, individual rats, read-out: Cmax): 5800 ng/mL
- half-life [2, 17]: 2.27 h
- AUC(0-inf) [2, 18]: 40000 ng·h/mL
- AUC(0-t) [2, 18]: 40000 ng·h/mL
- Bioavailability ([2]; rat, plasma, po, 30 mg/kg, PO 30 mg/kg, mean of 3 rats, read-out: Bioavailability): 118%
- Cmax ([2]; rat, plasma, po, 30 mg/kg, PO 30 mg/kg, mean of 3 rats, read-out: Cmax): 5300 ng/mL
- time at which plasma levels peaked after administration ([2]; rats, single dose, over a period of 24 hours (data not shown)): 2 to 4 h
- luminescent signal (PTEN null T-ALL): significantly lower
- AUC (Mouse PK): 1500 ng·h/mL
- Cmax (Mouse PK): 1280 ng/mL
- Tmax (Mouse PK): 0.25 h
- EC50 (Solid tumor): 1700 nM
- viability of tumor cells (primary T-ALL tumors): reduced viability
- EC50 (22Rv1): 250 nM
- EC50 (OVCAR-3 [3]): 647 nM
- EC50 (LNCaP): 34 nM
- GI50 (LN229 [4]): 3000 nM
- EC50 (T47D): 502 nM
- In vitro metabolism [5]: Stable in human liver microsomes
- EC50 [6]: 310 nM
- EC50 (U87MG): 17 nM
- EC50 (786-0 [7]): 44 nM
- GI50 (IGROV-1 [8]): 1300 nM
- EC50 (PC3): 155 nM
- EC50 (U138MG): 2290 nM
- GI50 (786-0 [9]): 5000 nM
- EC50 (T Cell Malignancies): 2400 nM
- EC50 (IGROV-1 [10]): 10 nM
- EC50 (pAkt in solid tumor): 188 nM
- EC50 (B Cell Malignancies): 420 nM
- EC50 (LN229 [11]): 10 nM
- EC50 (MDA-MB-468): 56 nM
